In PubChem BioAssay AID1745844 (Carcinogenic Potency Database (CPDB), 2022):
Where “and” joins values, the source holds several entries; their conditions need not be identical. Equal entries are not always repeated. Calls of active or inactive are those of the source. The rule behind the calls is not given here.

Test system: rodent lifetime carcinogenesis bioassay, tumor incidence TD50
Assay: carcinogenic potency in animals, long-term in vivo studies, CPDB compilation (AID 1745844)

O=CNc1nc(-c2ccc([N+](=O)[O-])o2)cs1
TD50 (hamster, strain Syrian Golden, males, in feed, site: forestomach, lesion: squamous-cell papilloma, dosed 48 weeks, study length 70 weeks): 83.8 mg/kg/day
carcinogen call (hamster, strain Syrian Golden, males, in feed, site: urinary bladder, lesion: several types, types named in the paper, dosed 48 weeks, study length 70 weeks): positive
TD50 (hamster, strain Syrian Golden, males, in feed, site: urinary bladder, lesion: squamous-cell carcinoma, dosed 48 weeks, study length 70 weeks): 54 mg/kg/day
TD50 (mouse, strain Charles River CD1, females, in feed, site: any site (literature study), lesion: several types, types named in the paper, dosed 36 weeks, study length 68 weeks): 18.7 mg/kg/day
TD50 (mouse, strain Charles River CD1, females, in feed, site: lung, lesion: adenoma, dosed 36 weeks, study length 68 weeks): 1120 mg/kg/day
TD50 (mouse, strain Charles River CD1, females, in feed, site: urinary bladder, lesion: spindle-cell tumor, dosed 36 weeks, study length 68 weeks): 128 mg/kg/day
TD50 (mouse, strain Charles River CD1, females, in feed, site: urinary bladder, lesion: squamous-cell carcinoma, dosed 36 weeks, study length 68 weeks): 128 mg/kg/day
TD50 (mouse, strain Charles River CD1, females, in feed, site: urinary bladder, lesion: transitional-cell carcinoma, dosed 36 weeks, study length 68 weeks): 33.3 mg/kg/day
TD50 (mouse, strain Charles River CD1, males, in feed, site: any site (literature study), lesion: several types, types named in the paper, dosed 40 weeks, study length 77 weeks): 21.5 mg/kg/day
TD50 (mouse, strain Charles River CD1, males, in feed, site: urinary bladder, lesion: spindle-cell tumor, dosed 40 weeks, study length 77 weeks): 97.1 mg/kg/day
TD50 (mouse, strain Charles River CD1, males, in feed, site: urinary bladder, lesion: squamous-cell carcinoma, dosed 40 weeks, study length 77 weeks): 250 mg/kg/day
TD50 (mouse, strain Charles River CD1, males, in feed, site: urinary bladder, lesion: transitional-cell carcinoma, dosed 40 weeks, study length 77 weeks): 30.5 mg/kg/day
TD50 (mouse, strain NMRI, females, by gavage, site: any site (literature study), lesion: benign tumor, dosed 68 weeks, study length 75 weeks): 69.4 mg/kg/day
TD50 (mouse, strain NMRI, females, by gavage, site: any site (literature study), lesion: malignant tumor, dosed 68 weeks, study length 75 weeks): 59.5 mg/kg/day
TD50 (mouse, strain NMRI, females, by gavage, site: forestomach, lesion: papilloma, dosed 68 weeks, study length 75 weeks): 164 mg/kg/day
TD50 (mouse, strain NMRI, females, by gavage, site: forestomach, lesion: squamous-cell carcinoma, dosed 68 weeks, study length 75 weeks): 139 mg/kg/day
TD50 (mouse, strain NMRI, females, by gavage, site: liver, lesion: malignant tumor, dosed 68 weeks, study length 75 weeks): 2390 mg/kg/day
TD50 (mouse, strain NMRI, females, by gavage, site: stomach, glandular, lesion: malignant tumor, dosed 68 weeks, study length 75 weeks): 944 mg/kg/day
TD50 (mouse, strain Swiss, females, in feed, site: all sites, lesion: leukemia, dosed 33 weeks, study length 52 weeks): 47.6 mg/kg/day
TD50 (mouse, strain Swiss, females, in feed, site: all sites, lesion: leukemia, dosed 46 weeks, study length 53 weeks): 55.4 mg/kg/day
TD50 (mouse, strain Swiss, females, in feed, site: all sites, lesion: lymphocytic leukemia, dosed 46 weeks, study length 66 weeks): 78.3 mg/kg/day
TD50 (mouse, strain Swiss, females, in feed, site: forestomach, lesion: squamous-cell papilloma, dosed 46 weeks, study length 66 weeks): 235 mg/kg/day
TD50 (mouse, strain Swiss, females, in feed, site: lung, lesion: alveolar-cell adenoma, dosed 33 weeks, study length 52 weeks): 208 mg/kg/day
TD50 (mouse, strain Swiss, females, in feed, site: lung, lesion: alveolar-cell carcinoma, dosed 46 weeks, study length 66 weeks): 86.4 mg/kg/day
TD50 (mouse, strain Swiss, females, in feed, site: lung, lesion: carcinoma, dosed 46 weeks, study length 53 weeks): 163 mg/kg/day
TD50 (mouse, strain Swiss, females, in feed, site: urinary bladder, lesion: carcinoma, dosed 33 weeks, study length 52 weeks): 19.8 mg/kg/day
TD50 (mouse, strain Swiss, females, in feed, site: urinary bladder, lesion: one or several types, types not named, dosed 46 weeks, study length 53 weeks): 18.2 mg/kg/day
TD50 (mouse, strain Swiss, females, in feed, site: urinary bladder, lesion: transitional-cell carcinoma, dosed 46 weeks, study length 66 weeks): 7.72 mg/kg/day
TD50 (rat, strain Fischer 344, males, in feed, site: urinary bladder, lesion: carcinoma, dosed 30 weeks, study length 104 weeks): 3.18 mg/kg/day
TD50 (rat, strain Fischer 344, males, in feed, site: urinary bladder, lesion: papillary carcinoma, dosed 30 weeks, study length 52 weeks): 5.92 mg/kg/day
TD50 (rat, strain Fischer 344, males, in feed, site: urinary bladder, lesion: several types, types named in the paper, dosed 30 weeks, study length 52 weeks): 1.31 mg/kg/day
TD50 (rat, strain Fischer, males, in feed, site: liver, lesion: hyperplastic nodule, dosed 36 weeks, study length 74 weeks): 263 mg/kg/day
TD50 (rat, strain Fischer, males, in feed, site: urinary bladder, lesion: carcinoma, invasive, dosed 36 weeks, study length 74 weeks): 9.74 mg/kg/day
TD50 (rat, strain Fischer, males, in feed, site: urinary bladder, lesion: carcinoma, invasive, dosed 77 weeks, study length 77 weeks): 18.1 mg/kg/day
TD50 (rat, strain Fischer, males, in feed, site: urinary bladder, lesion: carcinoma, noninvasive, dosed 36 weeks, study length 74 weeks): 60.5 mg/kg/day
TD50 (rat, strain Fischer, males, in feed, site: urinary bladder, lesion: carcinoma, noninvasive, dosed 77 weeks, study length 77 weeks): 195 mg/kg/day
TD50 (rat, strain Fischer, males, in feed, site: urinary bladder, lesion: carcinoma, dosed 36 weeks, study length 74 weeks): 4.51 mg/kg/day
carcinogen call (rat, strain Fischer, males, in feed, site: urinary bladder, lesion: carcinoma, dosed 72 weeks, study length 72 weeks): positive
TD50 (rat, strain Fischer, males, in feed, site: urinary bladder, lesion: carcinoma, dosed 77 weeks, study length 77 weeks): 9.87 mg/kg/day
TD50 (rat, strain Sprague-Dawley, females, in feed, site: urinary bladder, lesion: papillary carcinoma, dosed 26 weeks, study length 70 weeks): 48.6 mg/kg/day
TD50 (rat, strain Sprague-Dawley, females, in feed, site: urinary bladder, lesion: papillary carcinoma, dosed 46 weeks, study length 70 weeks): 82.7 mg/kg/day
carcinogen call (rat, strain Sprague-Dawley, females, in feed, site: urinary bladder, lesion: several types, types named in the paper, dosed 26 weeks, study length 70 weeks): positive
TD50 (rat, strain Sprague-Dawley, females, in feed, site: urinary bladder, lesion: several types, types named in the paper, dosed 46 weeks, study length 63 weeks): 5.07 mg/kg/day
carcinogen call (rat, strain Sprague-Dawley, females, in feed, site: urinary bladder, lesion: several types, types named in the paper, dosed 46 weeks, study length 70 weeks): positive
carcinogen call (rat, strain Sprague-Dawley, females, in feed, site: urinary bladder, lesion: transitional-cell carcinoma, dosed 26 weeks, study length 70 weeks): positive
carcinogen call (rat, strain Sprague-Dawley, females, in feed, site: urinary bladder, lesion: transitional-cell carcinoma, dosed 46 weeks, study length 70 weeks): positive
carcinogen call (rat, strain Sprague-Dawley, males, in feed, site: urinary bladder, lesion: transitional-cell carcinoma, dosed 26 weeks, study length 52 weeks): positive
carcinogen call (rat, strain Sprague-Dawley, males, in feed, site: urinary bladder, lesion: transitional-cell carcinoma, dosed 46 weeks, study length 52 weeks): positive
carcinogen call (rat, strain Wistar, females, in feed, site: urinary bladder, lesion: transitional-cell carcinoma, dosed 34 weeks, study length 52 weeks): positive

CC(C)NCC(O)c1ccc(NS(C)(=O)=O)cc1 (stereo not drawn)
TD50 (mouse, strain Charles River CD1, females, in feed, site: any site (literature study), lesion: benign tumor, dosed 78 weeks, study length 92 weeks): 1740 mg/kg/day (inactive)
carcinogen call (mouse, strain Charles River CD1, females, in feed, site: any site (literature study), lesion: malignant tumor, dosed 78 weeks, study length 92 weeks): negative (inactive)
TD50 (mouse, strain Charles River CD1, females, in feed, site: any site (literature study), lesion: several types, types named in the paper, dosed 78 weeks, study length 92 weeks): 1910 mg/kg/day (inactive)
carcinogen call (mouse, strain Charles River CD1, females, in feed, site: liver, lesion: one or several types, types not named, dosed 78 weeks, study length 92 weeks): negative (inactive)
TD50 (mouse, strain Charles River CD1, females, in feed, site: lung, lesion: adenoma, dosed 78 weeks, study length 92 weeks): 3500 mg/kg/day (inactive)
TD50 (mouse, strain Charles River CD1, females, in feed, site: lung, lesion: carcinoma, dosed 78 weeks, study length 92 weeks): 24500 mg/kg/day (inactive)
carcinogen call (mouse, strain Charles River CD1, males, in feed, site: any site (literature study), lesion: benign tumor, dosed 78 weeks, study length 92 weeks): negative (inactive)
carcinogen call (mouse, strain Charles River CD1, males, in feed, site: any site (literature study), lesion: malignant tumor, dosed 78 weeks, study length 92 weeks): negative (inactive)
carcinogen call (mouse, strain Charles River CD1, males, in feed, site: any site (literature study), lesion: several types, types named in the paper, dosed 78 weeks, study length 92 weeks): negative (inactive)
carcinogen call (mouse, strain Charles River CD1, males, in feed, site: liver, lesion: adenoma, dosed 78 weeks, study length 92 weeks): negative (inactive)
carcinogen call (mouse, strain Charles River CD1, males, in feed, site: liver, lesion: carcinoma, dosed 78 weeks, study length 92 weeks): negative (inactive)
TD50 (mouse, strain Charles River CD1, males, in feed, site: lung, lesion: adenoma, dosed 78 weeks, study length 92 weeks): 31400 mg/kg/day (inactive)
carcinogen call (mouse, strain Charles River CD1, males, in feed, site: lung, lesion: carcinoma, dosed 78 weeks, study length 92 weeks): negative (inactive)
carcinogen call (rat, strain Long-Evans, females, in feed, site: any site (literature study), lesion: benign tumor, dosed 78 weeks, study length 104 weeks): negative (inactive)
TD50 (rat, strain Long-Evans, females, in feed, site: any site (literature study), lesion: malignant tumor, dosed 78 weeks, study length 104 weeks): 1600 mg/kg/day (inactive)
TD50 (rat, strain Long-Evans, females, in feed, site: any site (literature study), lesion: several types, types named in the paper, dosed 78 weeks, study length 104 weeks): 477 mg/kg/day (inactive)
TD50 (rat, strain Long-Evans, females, in feed, site: liver, lesion: cholangioma, dosed 78 weeks, study length 104 weeks): 12600 mg/kg/day (inactive)
carcinogen call (rat, strain Long-Evans, males, in feed, site: any site (literature study), lesion: benign tumor, dosed 78 weeks, study length 104 weeks): negative (inactive)
TD50 (rat, strain Long-Evans, males, in feed, site: any site (literature study), lesion: malignant tumor, dosed 78 weeks, study length 104 weeks): 2270 mg/kg/day (inactive)
TD50 (rat, strain Long-Evans, males, in feed, site: any site (literature study), lesion: several types, types named in the paper, dosed 78 weeks, study length 104 weeks): 796 mg/kg/day (inactive)
TD50 (rat, strain Long-Evans, males, in feed, site: liver, lesion: hepatocellular adenoma, dosed 78 weeks, study length 104 weeks): 309000 mg/kg/day (inactive)
TD50 (rat, strain Long-Evans, males, in feed, site: liver, lesion: hepatocellular carcinoma, dosed 78 weeks, study length 104 weeks): 12400 mg/kg/day (inactive)

CCC(Br)(CC)C(=O)NC(N)=O
TD50 (mouse, strain B6C3F1, females, in feed, site: any site (literature study), lesion: several types, types named in the paper, dosed 78 weeks, study length 104 weeks): 5320 mg/kg/day
TD50 (mouse, strain B6C3F1, females, in feed, site: liver, lesion: hepatocellular adenoma + hepatocellular carcinoma + neoplastic nodule, dosed 78 weeks, study length 104 weeks): 1950 mg/kg/day
TD50 (mouse, strain B6C3F1, females, in feed, site: lung, lesion: alveolar/bronchiolar adenoma + alveolar/bronchiolar carcinoma, dosed 78 weeks, study length 104 weeks): 553 mg/kg/day (inactive) and 553 mg/kg/day
carcinogen call (mouse, strain B6C3F1, males, in feed, site: any site (literature study), lesion: several types, types named in the paper, dosed 78 weeks, study length 104 weeks): negative (inactive)
TD50 (mouse, strain B6C3F1, males, in feed, site: liver, lesion: hepatocellular adenoma + hepatocellular carcinoma + neoplastic nodule, dosed 78 weeks, study length 104 weeks): 1580 mg/kg/day
carcinogen call (rat, strain Fischer 344, females, in feed, site: any site (literature study), lesion: several types, types named in the paper, dosed 103 weeks, study length 104 weeks): negative (inactive)
TD50 (rat, strain Fischer 344, males, in feed, site: any site (literature study), lesion: several types, types named in the paper, dosed 103 weeks, study length 104 weeks): 1030 mg/kg/day (inactive)
